Results published in ChEMBL document CHEMBL1142408, “Synthesis and biological evaluation of 10,11-dihydrodictyostatin, a potent analogue of the marine anticancer agent dictyostatin” (J Nat Prod, 2008).
pIC50: −log10 of the molar value. Active and inactive are the calls of the source. The calls are words filed in the database; no cut-off is given here.

How the values were obtained:
Format in all cases: functional, cell-based
[1] = system: DLD-1; assay: Cytotoxicity against human DLD1 cells after 72 hrs by MTT assay; conditions: DLD-1, 72 h
[2] = system: ASPC1; assay: Cytotoxicity against human AsPC1 cells after 72 hrs by MTT assay; conditions: ASPC1, 72 h
[3] = Cytotoxicity against taxol-resistant human NCI/ADR cells after 72 hrs by MTT assay; conditions: NCI/ADR-RES
[4] = system: PANC-1; assay: Cytotoxicity against human PANC1 cells after 72 hrs by MTT assay; conditions: PANC-1, 72 h
[5] = system: PANC-1; assay: Microtubule polymerization in human PANC1 cells
[6] = system: PANC-1; assay: Cell cycle arrest in human PANC1 cells assessed as accumulation at G2/M phase after 24 hrs
[7] = system: P388; assay: Cytotoxicity against mouse P388 cells by MTT assay

## C=C/C=C\[C@H](C)[C@@H]1OC(=O)/C=C\C=C\[C@@H](C)[C@@H](O)C[C@H](O)CC[C@H](C)[C@H](O)[C@@H](C)C[C@@H](C)CC[C@@H](O)[C@@H]1C
[1]
  pIC50: 8.00
[2]
  pIC50: 7.37
[3]
  pIC50: 6.52
[4]
  pIC50: 7.74
[5]
  Activity: Active
[6]
  Activity: Active

## C=C/C=C\[C@H](C)[C@@H]1OC(=O)/C=C\C=C\[C@@H](C)[C@@H](O)C[C@H](O)/C=C\[C@H](C)[C@H](O)[C@@H](C)C[C@@H](C)CC[C@@H](O)[C@@H]1C [DICTYOSTATIN]
[1]
  pIC50: 9.10
[2]
  pIC50: 8.05
[3]
  pIC50: 8.01
[4]
  pIC50: 8.47

## C=C/C=C\[C@H](C)[C@H](OC(N)=O)[C@@H](C)[C@H](O)[C@@H](C)C/C(C)=C\[C@H](C)[C@@H](O)[C@@H](C)/C=C\[C@@H](O)C[C@@H]1OC(=O)[C@H](C)[C@@H](O)[C@H]1C [DISERMOLIDE]
[1]
  pIC50: 7.54
[2]
  pIC50: 7.01
[3]
  pIC50: 6.80
[4]
  pIC50: 7.23
[7]
  pIC50: 7.46

## CC(=O)O[C@H]1C(=O)[C@@]2(C)[C@H]([C@H](OC(=O)c3ccccc3)[C@]3(O)C[C@H](OC(=O)[C@H](O)[C@@H](NC(=O)c4ccccc4)c4ccccc4)C(C)=C1C3(C)C)[C@]1(OC(C)=O)CO[C@@H]1C[C@@H]2O [PACLITAXEL]
[1]
  pIC50: 7.96
[2]
  pIC50: 7.70
[3]
  pIC50: 6.00
[4]
  pIC50: 8.15
